PubChem BioAssay (NCI)
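The compound was tested at five concentrations on cells cultured in 96-well plates, with a 48-hour exposure period. GI50 is the concentration that inhibits growth by half. At the TGI there is no net growth.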

Experiments:
Assay in all cases: inhibition of tumour cell growth, NCI panel, 48 h
[1] = system: LOX IMVI melanoma
[2] = system: PC-3 prostate
[3] = system: CCRF-CEM leukemia
[4] = system: SK-MEL-2 melanoma
[5] = system: T-47D breast
[6] = system: MDA-MB-435
[7] = system: OVCAR-3 ovarian
[8] = system: MDA-MB-231 breast
[9] = system: SK-OV-3 ovarian
[10] = system: MCF7 breast
[11] = system: IGROV1 ovarian
[12] = system: 786-0 renal
[13] = system: MDA-N
[14] = system: SNB-75 CNS
[15] = system: SF-295 CNS
[16] = system: NCI-H460 lung
[17] = system: OVCAR-5 ovarian
[18] = system: SW-620 colon
[19] = system: SN12C renal
[20] = system: RPMI-8226 leukemia
[21] = system: K-562 leukemia
[22] = system: ACHN renal
[23] = system: UACC-257 melanoma
[24] = system: UO-31 renal
[25] = system: DU-145 prostate
[26] = system: MALME-3M melanoma
[27] = system: SK-MEL-28 melanoma
[28] = system: NCI-H522 lung
[29] = system: SNB-19 CNS
[30] = system: OVCAR-8 ovarian
[31] = system: SF-539 CNS
[32] = system: SR leukemia
[33] = system: HS 578T breast
[34] = system: SF-268 CNS
[35] = system: SK-MEL-5 melanoma
[36] = system: RXF 393 renal
[37] = system: COLO 205 colon
[38] = system: NCI-H226 lung
[39] = system: HL-60(TB) leukemia
[40] = system: HCT-116 colon
[41] = system: HT29 colon
[42] = system: EKVX NSCLC
[43] = system: A498 renal
[44] = system: MOLT-4 leukemia
[45] = system: HCT-15 colon
[46] = system: OVCAR-4 ovarian
[47] = system: HOP-92 NSCLC
[48] = system: HCC-2998 colon
[49] = system: BT-549 breast
[50] = system: U251 CNS
[51] = system: NCI-H23 lung
[52] = system: KM12 colon
[53] = system: M14 melanoma
[54] = system: HOP-62 NSCLC
[55] = system: UACC-62 melanoma
[56] = system: NCI/ADR-RES ovarian
[57] = system: TK-10 renal
[58] = system: A549 NSCLC
[59] = system: CAKI-1 renal
[60] = system: DLD-1 colon
[61] = system: SNB-78 CNS
[62] = system: DMS 114 small cell lung
[63] = system: M19-MEL melanoma
[64] = system: LXFL 529 NSCLC

CNC1C(OC2C(OC3C(O)C(O)C(O)C(O)C3O)OC(C)C2(O)CO)OC(CO)C(O)C1O (centres undefined) (tested in a mixture with another compound)
TGI [1]: > 100 µM | TGI [2]: > 100 µM | TGI [3]: > 100 µM | TGI [4]: > 100 µM | TGI [5]: > 100 µM | TGI [6]: > 100 µM | TGI [7]: > 100 µM | TGI [8]: > 100 µM | TGI [9]: > 100 µM | TGI [10]: > 100 µM | TGI [11]: > 100 µM | TGI [12]: > 100 µM | TGI [13]: > 100 µM | TGI [14]: > 100 µM | TGI [15]: > 100 µM | TGI [16]: > 100 µM | TGI [17]: > 100 µM | TGI [18]: > 100 µM | TGI [19]: > 100 µM | TGI [20]: > 100 µM | TGI [21]: > 100 µM | TGI [22]: > 100 µM | TGI [23]: > 100 µM | TGI [24]: > 100 µM | TGI [25]: > 100 µM | TGI [26]: > 100 µM | TGI [27]: > 100 µM | TGI [28]: > 100 µM | TGI [29]: > 100 µM | TGI [30]: > 100 µM | TGI [31]: > 100 µM | TGI [32]: > 100 µM | TGI [33]: > 100 µM | TGI [34]: > 100 µM | TGI [35]: > 100 µM | TGI [36]: > 100 µM | TGI [37]: > 100 µM | TGI [38]: > 100 µM | TGI [39]: > 100 µM | TGI [40]: > 100 µM | TGI [41]: > 100 µM | TGI [42]: > 100 µM | TGI [43]: > 100 µM | TGI [44]: > 100 µM | TGI [45]: > 100 µM | TGI [46]: > 100 µM | TGI [47]: > 100 µM | TGI [48]: > 100 µM | TGI [49]: > 100 µM | TGI [50]: > 100 µM | TGI [51]: > 100 µM | TGI [52]: > 100 µM | TGI [53]: > 100 µM | TGI [54]: > 100 µM | TGI [55]: > 100 µM | TGI [56]: > 100 µM | TGI [57]: > 100 µM | TGI [58]: > 100 µM

O=C([O-])c1ccccc1Nc1ccccc1[O-].[Ni+3].[OH3+].[OH3+].[OH3+]
GI50 [1]: > 100 µM | TGI [1]: > 100 µM | GI50 [3]: > 100 µM | TGI [3]: > 100 µM | GI50 [4]: > 100 µM | TGI [4]: > 100 µM | GI50 [7]: > 100 µM | TGI [7]: > 100 µM | GI50 [9]: > 100 µM | TGI [9]: > 100 µM | GI50 [11]: > 100 µM | TGI [11]: > 100 µM | GI50 [12]: > 100 µM | TGI [12]: > 100 µM | GI50 [15]: > 100 µM | TGI [15]: > 100 µM | GI50 [16]: > 100 µM | TGI [16]: > 100 µM | GI50 [17]: > 100 µM | TGI [17]: > 100 µM | GI50 [18]: > 100 µM | TGI [18]: > 100 µM | GI50 [19]: > 100 µM | TGI [19]: > 100 µM | GI50 [59]: > 100 µM | TGI [59]: > 100 µM | GI50 [20]: > 100 µM | TGI [20]: > 100 µM | GI50 [21]: > 100 µM | TGI [21]: > 100 µM | GI50 [22]: > 100 µM | TGI [22]: > 100 µM | GI50 [23]: > 100 µM | TGI [23]: > 100 µM | GI50 [24]: > 100 µM | TGI [24]: > 100 µM | GI50 [26]: > 100 µM | TGI [26]: > 100 µM | GI50 [27]: > 100 µM | TGI [27]: > 100 µM | GI50 [28]: > 100 µM | TGI [28]: > 100 µM | GI50 [29]: > 100 µM | TGI [29]: > 100 µM | GI50 [30]: > 100 µM | TGI [30]: > 100 µM | GI50 [31]: > 100 µM | TGI [31]: > 100 µM | GI50 [60]: > 100 µM | TGI [60]: > 100 µM | GI50 [32]: > 100 µM | TGI [32]: > 100 µM | GI50 [34]: > 100 µM | TGI [34]: > 100 µM | GI50 [35]: > 100 µM | TGI [35]: > 100 µM | GI50 [36]: > 100 µM | TGI [36]: > 100 µM | GI50 [37]: > 100 µM | TGI [37]: > 100 µM | GI50 [38]: 88.4 µM | TGI [38]: > 100 µM | GI50 [61]: > 100 µM | TGI [61]: > 100 µM | GI50 [40]: > 100 µM | TGI [40]: > 100 µM | GI50 [41]: > 100 µM | TGI [41]: > 100 µM | GI50 [42]: > 100 µM | TGI [42]: > 100 µM | GI50 [43]: > 100 µM | TGI [43]: > 100 µM | GI50 [44]: > 100 µM | TGI [44]: > 100 µM | GI50 [45]: > 100 µM | TGI [45]: > 100 µM | GI50 [46]: > 100 µM | TGI [46]: > 100 µM | GI50 [47]: 31.4 µM | TGI [47]: > 100 µM | GI50 [48]: > 100 µM | TGI [48]: > 100 µM | GI50 [62]: > 100 µM | TGI [62]: > 100 µM | GI50 [50]: > 100 µM | TGI [50]: > 100 µM | GI50 [51]: > 100 µM | TGI [51]: > 100 µM | GI50 [52]: > 100 µM | TGI [52]: > 100 µM | GI50 [53]: > 100 µM | TGI [53]: > 100 µM | GI50 [54]: > 100 µM | TGI [54]: > 100 µM | GI50 [55]: > 100 µM | TGI [55]: > 100 µM | GI50 [63]: > 100 µM | TGI [63]: > 100 µM | GI50 [64]: > 100 µM | TGI [64]: > 100 µM | GI50 [58]: > 100 µM | TGI [58]: > 100 µM

Cc1cccc(NC(=S)N/N=C(/c2ccccc2)c2ccccn2)c1
TGI [1]: 11.5 µM | TGI [2]: 18.3 µM | TGI [3]: 1.48 µM | TGI [4]: 14.5 µM | TGI [5]: 19.6 µM | TGI [6]: 17.6 µM | TGI [7]: 11.9 µM | TGI [8]: 6.73 µM | TGI [9]: 14.1 µM | TGI [10]: 0.663 µM | TGI [11]: 16.7 µM | TGI [12]: 14.6 µM | TGI [13]: 20.8 µM | TGI [14]: 22.1 µM | TGI [15]: 10.7 µM | TGI [16]: 8.91 µM | TGI [17]: 8.68 µM | TGI [18]: 20.4 µM | TGI [19]: 12.4 µM | TGI [59]: 12.7 µM | TGI [20]: > 7.74 µM | TGI [21]: 2.84 µM | TGI [22]: 11.8 µM | TGI [23]: 1.57 µM | TGI [24]: 10.4 µM | TGI [25]: 9.34 µM | TGI [26]: 12.6 µM | TGI [27]: 40.5 µM | TGI [28]: 14.6 µM | TGI [29]: 20 µM | TGI [30]: 15.4 µM | TGI [31]: 12.8 µM | TGI [32]: 7.13 µM | TGI [33]: 76.1 µM | TGI [34]: 12.6 µM | TGI [35]: 7.18 µM | TGI [36]: 13.2 µM | TGI [37]: 12.8 µM | TGI [38]: 6 µM | TGI [39]: 1.53 µM | TGI [40]: 13 µM | TGI [41]: 17.4 µM | TGI [42]: 4.08 µM | TGI [43]: 13.7 µM | TGI [44]: > 6.59 µM | TGI [45]: 16.5 µM | TGI [46]: 17.2 µM | TGI [47]: 15.7 µM | TGI [48]: 19.7 µM | TGI [49]: 17 µM | TGI [50]: 12.5 µM | TGI [51]: 13.9 µM | TGI [52]: 13.8 µM | TGI [53]: 2.58 µM | TGI [54]: 17.5 µM | TGI [55]: 15.5 µM | TGI [56]: 6.63 µM | TGI [57]: 16 µM | TGI [58]: 14.3 µM
